Laboratory results: US11608380B2, “Anti-EGFRvIII antibodies and uses thereof” (REGENERON PHARMACEUTICALS, INC., priority 2014, dated 2023)

Tests used:
Assay in all cases: Cell viability (CCK8) cell kill assay
U251 = type: cell-based; settings: Table 18A
Procedure: (§1) Next, the ability of anti-human EGFRvIII antibodies conjugated to the maytansine toxin DM1 to reduce cell viability was determined using in vitro cell based assays. Cells were seeded in PDL-coated 96 well plates at 250-2000 cells per well in complete growth media and allowed to grow overnight. For cell viability curves, ADCs or free drug (DM1-SMe) was added to cells at final concentrations ranging from 500 nM to 5 μM and incubated for 3 days. Cells were incubated with CCK8 (Dojindo) for the final 1-3 h and the absorbance at 450 nm (OD450) was determined on the Flexstation3 (Molecular Devices). Background OD450 levels from digitonin (40 nM) treated cells was subtracted from all wells and viability is expressed as a percentage of the untreated controls. IC50 values were determined from a four-parameter logistic equation over a 10-point response curve (Graph Pad Prism). IC50 values are in nM and are normalized for the particular drug/antibody ratio (DAR).

HEK293 = type: cell-based
Procedure: as §1

MMT = type: cell-based
Procedure: as §1

U251/hEGFRvIII = type: cell-based, human; settings: Table 18B
Procedure: (§2) All cells were generated via lipofectamine 2000 based methodologies and were cultured in complete growth media in the presence of G418.
as §1, with “Cells were incubated with CCK8 (Dojindo) for the final 1-3 h and the absorbance at 450 nm (OD450) was determined on the Flexstation3 (Molecular Devices).” left out

HEK293/hEGFRvIII = type: cell-based, human
Procedure: as §2
as §1, with “Cells were incubated with CCK8 (Dojindo) for the final 1-3 h and the absorbance at 450 nm (OD450) was determined on the Flexstation3 (Molecular Devices).” left out

MMT/hEGFRvIII = type: cell-based, human
Procedure: as §2
as §1, with “Cells were incubated with CCK8 (Dojindo) for the final 1-3 h and the absorbance at 450 nm (OD450) was determined on the Flexstation3 (Molecular Devices).” left out

HEK293/hEGFRwt = type: cell-based, human; settings: Table 18A
Procedure: as §2
as §1, with “Cells were incubated with CCK8 (Dojindo) for the final 1-3 h and the absorbance at 450 nm (OD450) was determined on the Flexstation3 (Molecular Devices).” left out

[1] = Table 20, HEK293, single ADC or 1:1 pairwise combination
[2] = Table 20, MMT, single ADC or 1:1 pairwise combination
[3] = Table 19, HEK293/hEGFRvIII (high)
[4] = Table 20, HEK293/hEGFRvIII, single ADC or 1:1 pairwise combination
[5] = Table 20, MMT/hEGFRvIII, single ADC or 1:1 pairwise combination

## DM1-SMe
U251; U251
  % Kill: 81%
U251; U251, 3 days, normalized for DAR
  IC50: 1.8 nM
HEK293; Table 18A, HEK293
  % Kill: 97%
HEK293; Table 18A, HEK293, 3 days, normalized for DAR
  IC50: 0.31 nM
HEK293; Table 19, HEK293
  % Kill: 98%
  IC50: 0.19 nM
HEK293; [1]
  % Kill: 96%
  IC50: 0.21 nM
MMT; Table 18B, MMT
  % Kill: 96%
MMT; Table 18B, MMT, 3 days, normalized for DAR
  IC50: 0.6 nM
MMT; Table 19, MMT
  % Kill: 100%
  IC50: 0.15 nM
MMT; [2]
  % Kill: 100%
  IC50: 0.19 nM
U251/hEGFRvIII
  % Kill: 83%
U251/hEGFRvIII; 3 days, normalized for DAR
  IC50: 1.2 nM
HEK293/hEGFRvIII; Table 18A, HEK293/hEGFRvIII
  % Kill: 99%
HEK293/hEGFRvIII; Table 18A, HEK293/hEGFRvIII, 3 days, normalized for DAR
  IC50: 0.6 nM
HEK293/hEGFRvIII; [3]
  % Kill: 99%
  IC50: 0.25 nM
HEK293/hEGFRvIII; [4]
  % Kill: 97%
  IC50: 0.28 nM
MMT/hEGFRvIII; Table 18B, MMT/hEGFRvIII
  % Kill: 100%
MMT/hEGFRvIII; Table 18B, MMT/hEGFRvIII, 3 days, normalized for DAR
  IC50: 0.7 nM
MMT/hEGFRvIII; Table 19, MMT/hEGFRvIII (high)
  % Kill: 99%
  IC50: 0.18 nM
MMT/hEGFRvIII; [5]
  % Kill: 100%
  IC50: 0.19 nM
HEK293/hEGFRwt
  % Kill: 95%
HEK293/hEGFRwt; 3 days, normalized for DAR
  IC50: 0.57 nM
